According to patent US3984413A, “Phenoxyalkanecarboxylic acid esters of hydroxyalkyltheophyllines and method for their manufacture” (L. Merckle KG, priority 1973, dated 1976):
Where two headings read alike, the source gives them in different places.

Columns and labels:
[1] = antilipemic and anticholesterolemic action in rats on fatty diet, 14 days; type: in vivo, rat (male SPF Wistar); settings: for Drop (nonvolatile triglycerides) / Final value cholesterol / Final value nonvolatile triglycerides / Drop (cholesterol): 14 days; for Final value cholesterol / Final value nonvolatile triglycerides: blood serum; for reduction of the triglycerides compared with Clofibrat: in a substantially lower dosage than Clofibrat
Description: (§1) The antilipemic and anticholesterolemic action of the compounds according to the invention and of Clofibrat as a standard of comparison was tested on each of 10 male SPF Wistar strain rats of body weights from 80 to 90 g. For test purposes the animals were kept individually apart with restricted feed but water as desired. The animals of control group I were given 10 g basal diet daily, those of control group II, the test groups as well as the Clofibrat comparison group received in addition to the basal diet a fatty composition consisting of 40 g/kg butter with 5 g/kg cholesterol. The test substances conforming to the examples, and also the Clofibrat, were suspended in a 0.2% methylcellulose solution and administered by probang. The final cholesterol value and the value of the nonvolatile triglycerides was determined after 14 days treatment. The analyses were performed in the blood serum by means of an SMA 12/60 auto-analyzer.

[2] = action on blood pressure in narcotized dogs; settings: into the duodenum, doses up to 200 mg/kg
[3] = over-all tolerance and clinical pattern during the rat lipid trial; type: in vivo, rat (male SPF Wistar)
Description: as §1
There were no deaths. […] No difference could be determined in hearing tests.

[4] = action on peripheral circulation in narcotized dogs; type: in vivo, dog
Source text: According to Examples 2, 3 and 4, the peripheral circulation is increased some 20-30% of its initial level by the test substances according to those examples.

[5] = acute toxicity (LD50) in mice, oral; settings: in vivo, mouse
Description: (§2) The acute toxicity of the preparations according to the invention was tested on CFJ strain mice and Sprague-Dawley rats.
(§3) The test substances according to Examples 2,5,6,8 and 10 were administered orally as a 5% suspension in methylcellulose by means of a probang, while the test material according to Example 4, was administered in a 8% gelatin suspension. The test materials for Examples 1 and 3 were administered orally by probang in an aqueous kaolin paste to rats (5 female and 5 male rats weighing 140 to 185 grams each).
(§4) The period of observation was 7 days.

[6] = cited from earlier work
[7] = mouse; comparison, literature data; 10080 min; cited from earlier work
[8] = acute toxicity (LD50) in rats, oral; settings: rat, in vivo
Description: as §2, §3, §4

[9] = versus control groups and Clofibrat comparison group
[10] = oral, 5% suspension in methylcellulose, 7 days, according to Litchfield and Wilcoxon

Row | Compound | Drop (nonvolatile triglycerides) ([1]; 100 mg/kg) [%] | Final value cholesterol ([1]; 100 mg/kg) [mg %] | Final value nonvolatile triglycerides ([1]; 100 mg/kg) | systolic and diastolic blood pressure [2] | increase of peripheral circulation, of its initial level [4] | LD50 at 168 h [5, 10] [mg/kg] | other results
1 | Cn1c(=O)c2c(ncn2CC(O)COC(=O)COc2ccc(Cl)cc2)n(C)c1=O (stereo not shown) [Example 2, 1-(7-theophyllinyl)-2-hydroxy-3-propyl (p-chlorophenoxyacetate)] | 45.9 | 130.3 | 73.4 | did not acutely affect the systolic and diastolic blood pressure to any substantial degree | 20-30% | 2150 | reduction of the triglycerides compared with Clofibrat [1]: more than twice as large a reduction of the triglycerides; over-all tolerance [3, 9]: no differences in the over-all tolerance
2 | Cn1c(=O)c2c(ncn2CCOC(=O)C(Oc2ccc(Cl)cc2)Oc2ccc(Cl)cc2)n(C)c1=O [Example 4, 1-(7-theophyllinyl)-2-ethyl bis-(p-chlorophenoxy) acetate] | – | 111.0 | 179.7 | did not acutely affect the systolic and diastolic blood pressure to any substantial degree | 20-30% | – | Final value cholesterol ([1]; 35 mg/kg): 132.3 mg %; Final value nonvolatile triglycerides ([1]; 35 mg/kg): 148.3; Drop (cholesterol) ([1]; 100 mg/kg): 9.8%; weight increase ([3]; 100 mg/kg dosage): reduced increase in weight; LD50 at 168 h ([5]; po): 1910 mg/kg
3 | Cn1c(=O)c2c(ncn2CCOC(=O)COc2ccc(F)cc2)n(C)c1=O [Example 10] | – | – | – | – | – | 1680 | –
4 | CC(Oc1cccc(C(F)(F)F)c1)C(=O)OCCn1cnc2c1c(=O)n(C)c(=O)n2C (stereo not shown) [Example 8] | – | – | – | – | – | 2140 | –
5 | Cn1c(=O)c2c(ncn2CCOC(=O)COc2ccc(Cl)cc2)n(C)c1=O [Example 5] | – | – | – | – | – | 1510 | –
6 | CCOC(=O)C(C)(C)Oc1ccc(Cl)cc1 [Clofibrat, ethyl 2-(p-chlorophenoxy) isobutyrate, reference compound] | – | – | – | – | – | – | Drop (nonvolatile triglycerides) ([1]; 250 mg/kg): 20.6%; Final value cholesterol ([1]; 250 mg/kg): 133.3 mg %; Final value nonvolatile triglycerides ([1]; 250 mg/kg): 107.7; lowering of cholesterol ([1]; fatty diet rats, in these experimental trials): absolutely inactive; effect on cholesterol value ([6]; fatty diet rat test, Berger et al. 1969): does not lower but even raises the cholesterol value; lowering of cholesterol ([6]; reported in the literature): frequently been reported in the literature; LD50 [7]: 1150 mg/kg
7 | Cn1c(=O)c2c(ncn2CC(COC(=O)COc2ccc(Cl)cc2)OC(=O)COc2ccc(Cl)cc2)n(C)c1=O (stereo not shown) [Example 3, 1-(7-theophyllinyl)-2,3-propylidenedi(p-chlorophenoxy acetate)] | 44.2 | 122.0 | 75.7 | did not acutely affect the systolic and diastolic blood pressure to any substantial degree | 20-30% | – | reduction of the triglycerides compared with Clofibrat [1]: more than twice as large a reduction of the triglycerides; LD50 at 168 h ([8]; po): > 4000 mg/kg; over-all tolerance [3, 9]: no differences in the over-all tolerance
8 | CC(Oc1ccc(Cl)cc1)C(=O)OCCn1cnc2c1c(=O)n(C)c(=O)n2C (stereo not shown) [Example 6] | – | – | – | – | – | 1540 | –
9 | Cn1c(=O)c2c(ncn2CCOC(=O)C(C)(C)Oc2ccc(Cl)cc2)n(C)c1=O [Example 1, 1-(7-theophyllinyl)-2-ethyl [2-(p-chlorophenoxy)-isobutyrate]] | 17.3 | 95.2 | 112.2 | – | up to 10% | – | Drop (cholesterol) ([1]; 100 mg/kg): 22.7%; lowering of increased cholesterol values (in words) ([1]; in comparison to Clofibrat): with greater significance lower the increased cholesterol values; reduction of the triglycerides (in words) ([1]; rat, in vivo): comparatively good reduction of the triglycerides; LD50 at 168 h ([8]; oral by probang, aqueous kaolin paste, 7 days observation): > 4000 mg/kg; over-all tolerance ([3]; rat, in vivo): no differences in the over-all tolerance; peripheral circulation activity (in words) [4]: only slight activity
